A value given as a limit tells only on which side of the number the result lay.

The results in this text go back to patent publication US20260022114A1, “N-(5-SUBSTITUTED-[(1,3,4-THIADIAZOLYL) OR (1,3-THIAZOLYL)](SUBSTITUTED)CARBOXAMIDE COMPOUNDS, PHARMACEUTICAL COMPOSITIONS, AND METHODS OF PREPARING THE AMIDE COMPOUNDS AND OF THEIR USE” (Repare Therapeutics Inc., priority 2022, published 2026).

In the experiment the target is PolQ ATPase enzyme (1-894) (Homo sapiens (Human), UniProt O75417). The experiment in a line: Polθ ATPase enzymatic assay (0.5 nM enzyme concentration), ADP-Glo. It counts as biochemical. To be noted: 0.5 nM PolQ ATPase enzyme (1-894); average IC50. How it is done:
PolQ ATPase enzyme (1-894) at 0.5 nM is incubated with a 10-point concentration response of inhibitors for 15 min at rt in the following buffer: 50 mM Tris Cl pH 7.5, 10% glycerol, 5 mM DTT, 10 mM MgCl2, 0.1 mg/ml BSA. Following pre-incubation with inhibitors, DNA (Fork C) at 20 nM and ATP at 100 μM are added to start the reaction. Enzymatic reaction proceeds at rt for 180 min. ATP consumption is measured using the ADP-Glo assay from Promega. Luminescence is read on the Envision and IC50 are determined using the variable slope 4-parameters equation.
Oligos are annealed by heating at 95° C. for 5 min in the following buffer (10 mM Tris-HCl PH7.5, 50 mM NaCl, 1 mM EDTA) and cooled to rt. […]

Chain of PolQ ATPase enzyme (1-894) (O75417 1-894): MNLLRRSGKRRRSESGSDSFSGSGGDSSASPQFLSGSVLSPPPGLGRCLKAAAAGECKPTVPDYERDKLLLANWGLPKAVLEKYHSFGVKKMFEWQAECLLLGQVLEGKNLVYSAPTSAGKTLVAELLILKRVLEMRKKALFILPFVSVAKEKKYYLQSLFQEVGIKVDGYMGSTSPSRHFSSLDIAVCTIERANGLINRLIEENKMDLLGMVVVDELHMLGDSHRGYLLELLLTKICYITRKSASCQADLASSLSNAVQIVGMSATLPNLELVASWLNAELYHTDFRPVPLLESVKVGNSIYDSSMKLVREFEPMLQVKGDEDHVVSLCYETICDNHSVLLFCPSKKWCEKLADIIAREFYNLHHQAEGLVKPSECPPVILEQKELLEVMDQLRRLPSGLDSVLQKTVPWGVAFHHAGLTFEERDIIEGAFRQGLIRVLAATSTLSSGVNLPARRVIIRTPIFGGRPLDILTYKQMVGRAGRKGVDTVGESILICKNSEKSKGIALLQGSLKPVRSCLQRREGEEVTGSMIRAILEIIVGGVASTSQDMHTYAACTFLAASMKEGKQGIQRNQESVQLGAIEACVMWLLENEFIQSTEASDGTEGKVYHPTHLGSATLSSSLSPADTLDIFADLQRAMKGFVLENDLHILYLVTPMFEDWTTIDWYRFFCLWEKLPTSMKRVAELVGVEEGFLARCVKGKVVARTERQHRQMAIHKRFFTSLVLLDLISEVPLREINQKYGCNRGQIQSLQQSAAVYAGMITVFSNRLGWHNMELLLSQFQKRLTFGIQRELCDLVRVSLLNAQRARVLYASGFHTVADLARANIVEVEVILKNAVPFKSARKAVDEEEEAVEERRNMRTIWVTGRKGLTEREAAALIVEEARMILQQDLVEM

In turn, `COc1cnc(C(F)F)cc1-c1cc(C2C[C@@H]2C(=O)N(C)C)ncc1C(=O)Nc1nnc(C#CC2CC2)s1` (mixture of isomers) [Compound 361] registered a 50% inhibitory concentration (IC50) of 1.9 nM. This counts as single-digit nanomolar.

`COc1cnc(C(F)F)cc1-c1cc(C2C[C@@H]2C(=O)N(C)C)ccc1C(=O)Nc1nnc(C#CC2CC2)s1` (mixture of isomers) [Compound 362] returned an IC50 of 1.4 nM.

With `COc1cnc(C(F)F)cc1-c1cc(C2C[C@H]2C(=O)N(C)C)ccc1C(=O)Nc1nnc(C#CC2CC2)s1` (mixture of isomers) [Compound 363], the IC50 is under 0.25 nM.

Turning to `C#C[C@H]1CC1c1nnc(NC(=O)c2ccc(-c3nnc(C)o3)cc2-c2cc(C(F)F)ncc2OC)s1` (mixture of isomers) [Compound 373], half-maximal inhibition (IC50) required 4.6 nM. This lies in the single-digit nanomolar range.

`COc1cnc(C(F)F)cc1-c1cc(N2CC3CC(C3)C2=O)ncc1C(=O)Nc1nnc(C#CC2CC2)s1` (racemic) [Compound 381] yielded an IC50 of under 0.25 nM.

As to `COc1cnc(C(F)F)cc1-c1cc(N2CC3CC3CC2=O)ncc1C(=O)Nc1nnc(C#CC2CC2)s1` (racemic) [Compound 388], the 50% inhibitory concentration (IC50) was under 0.25 nM.

`COc1cnc(C(F)F)cc1-c1cc(C2CC(C)CCC2=O)ncc1C(=O)Nc1nnc(C#CC2CC2)s1` (racemic) [Compound 389] had an IC50 of under 0.25 nM.

`COc1cnc(C(F)F)cc1-c1cc(N2CCC3CCC3C2=O)ncc1C(=O)Nc1nnc(C#CC2CC2)s1` (racemic) [Compound 443] had a 50% inhibitory concentration (IC50) of under 0.25 nM.

For `COc1cnc(C(F)F)cc1-c1cc(N2CCC(C(C)(C)C)CC2=O)ncc1C(=O)Nc1nnc(C#CC2CC2)s1` (racemic) [Compound 444], the IC50 was under 0.25 nM.

For the compound `COc1cnc(C(F)F)cc1-c1cc(N2CCC(C)CCC2=O)ncc1C(=O)Nc1nnc(C#CC2CC2)s1` (racemic) [Compound 485], inhibition was half-maximal at 0.7 nM (IC50). This lies in the sub-nanomolar range.

Turning to `COc1cnc(C(F)F)cc1-c1cc(-n2ccc(C)cc2=O)ncc1C(=O)Nc1nnc([C@H]2C[C@@H]2C#N)s1` (racemic) [Compound 539], the IC50 was 33.3 nM.

Regarding `COc1cnc(C(F)F)cc1-c1cc(C#CC2CCCN(C)C2)ncc1C(=O)Nc1nnc(C#CC2CC2)s1` (racemic) [Compound 556], the IC50 was found to be 1.8 nM.

As for `COc1cnc(C(F)F)cc1-c1cc(-n2ccc(C)cc2=O)ncc1C(=O)Nc1nnc(C#CC2CC23CC3)s1` (racemic) [Compound 557], the IC50 was under 0.25 nM.

`COc1cnc(C(F)F)cc1-c1cc(C#CCC2CCNC2=O)ncc1C(=O)Nc1nnc(C#CC2CC2)s1` (racemic) [Compound 570] showed an IC50 of under 0.25 nM.

`COc1cnc(C(F)F)cc1-c1cc(-n2ccc(C)cc2=O)ncc1C(=O)Nc1nnc([C@H]2C[C@@H]2c2cncs2)s1` (racemic) [Compound 579] gave an IC50 of 0.33 nM.

Turning to `COc1cnc(C(F)F)cc1-c1cc(-n2ccc(C)cc2=O)ncc1C(=O)Nc1nnc([C@H]2C[C@@H]2C2CC2)s1` (racemic) [Compound 580], the IC50 came to 0.34 nM.

`COc1cnc(C(F)F)cc1-c1cc(-n2ccc(C)cc2=O)ncc1C(=O)Nc1nnc([C@H]2C[C@@H]2C2CCOCC2)s1` (racemic) [Compound 581] showed an IC50 of 0.99 nM.

In turn, `COc1cnc(C(F)F)cc1-c1cc(-n2ccc(C)cc2=O)ncc1C(=O)Nc1nnc([C@H]2C[C@@H]2c2ccnn2C)s1` (racemic) [Compound 582] had an IC50 of 1.3 nM. This IC50 and that of the compound before are within 1.5-fold of each other.

In the case of `COc1cnc(C(F)F)cc1-c1cc(-n2ccc(C)cc2=O)ncc1C(=O)Nc1nnc([C@H]2C[C@@H]2c2ccn(C)n2)s1` (racemic) [Compound 583, 2″-(difluoromethyl)-5″-methoxy-4-methyl-N-(5-((1S,2S)-2-(1-methyl-1H-pyrazol-3-yl)cyclopropyl)-1,3,4-thiadiazol-2-yl)-2-oxo-2H-[1,2′:4′,4″-terpyridine]-5′-carboxamide], the IC50 is under 0.25 nM.

The compound `COc1cnc(C(F)F)cc1-c1cc(-n2ccc(C)cc2=O)ncc1C(=O)Nc1nnc([C@H]2C[C@@H]2c2cnn(C)c2)s1` (racemic) [Compound 584] came in with a half-inhibitory concentration (IC50) of 0.51 nM. That is a sub-nanomolar value.

In turn, `C=C[C@H]1C[C@@H]1c1nnc(NC(=O)c2cnc(-n3ccc(C)cc3=O)cc2-c2cc(C(F)F)ncc2OC)s1` (racemic) [Compound 585] registered an IC50 of 0.47 nM. The IC50 values of the last two compounds are within 1.5-fold of each other.

In turn, `COc1cnc(C(F)F)cc1-c1cc(-n2ccc(C)cc2=O)ncc1C(=O)Nc1nnc([C@H]2C[C@@H]2C(C)C)s1` (racemic) [Compound 586] yielded an IC50 of 1.2 nM.

`COc1cnc(C(F)F)cc1-c1cc(-n2ccc(C)cc2=O)ncc1C(=O)Nc1nnc([C@H]2C[C@@H]2c2ccccn2)s1` (racemic) [Compound 592]: the IC50 turned out to be 0.48 nM.

In the case of `C#C[C@@H]1CC1c1nnc(NC(=O)c2cnc(-n3ccc(C)cc3=O)cc2-c2cc(C(F)F)ncc2OC)s1` (mixture of isomers) [Compound 593], the IC50 worked out at 9.9 nM.

In turn, `COc1cnc(C(F)F)cc1-c1cc(-n2ccc(C)cc2=O)ncc1C(=O)Nc1nnc(C(C)OC)s1` (racemic) [Compound 604] had an IC50 of 30 nM.

`COc1cnc(C(F)F)cc1-c1cc(-n2ccc(C)cc2=O)ncc1C(=O)Nc1nnc(C2CC2(F)Cl)s1` (racemic) [Compound 605] displayed an IC50 of 4 nM.

As for `COc1cnc(C(F)F)cc1-c1cc(C#CCN2CCOCC2)ncc1C(=O)Nc1nnc([C@H]2C[C@@H]2C)s1` (racemic) [Compound 606], the 50% inhibitory concentration (IC50) turned out to be 4 nM.

In turn, `COc1cnc(C(F)F)cc1-c1cc(-n2ccc(OC3CCN(C)C3)cc2=O)ncc1C(=O)Nc1nnc(C#CC2CC2)s1` (racemic) [Compound 612] came in with an IC50 of 0.85 nM.

The compound `COc1cnc(C(F)F)cc1-c1cc(-n2ccc(OC3CCN(C)C3)cc2=O)ncc1C(=O)Nc1ncc(C#CC2CC2)s1` (racemic) [Compound 615] displayed an IC50 of 1.1 nM.

`COc1cnc(C(F)F)cc1-c1cc(C#CCN2CCCC2=O)ncc1C(=O)Nc1nnc([C@H]2C[C@@H]2C)s1` (racemic) [Compound 618]: the IC50 is 0.81 nM.

In turn, `COc1cnc(C(F)F)cc1-c1cc(C#CC(C)(C)O)ncc1C(=O)Nc1nnc([C@H]2C[C@@H]2C)s1` (racemic) [Compound 619] displayed an IC50 of 4.9 nM.

The compound `COc1cnc(C(F)F)cc1-c1cc(C#CCC(C)(C)O)ncc1C(=O)Nc1nnc([C@H]2C[C@@H]2C)s1` (racemic) [Compound 620] gave an IC50 of 3.2 nM.

The compound `COc1cnc(C(F)F)cc1-c1cc(C#CCC(C)(C)O)ncc1C(=O)Nc1nnc([C@H]2C[C@@H]2c2ccn(C)n2)s1` (racemic) [Compound 622] yielded an IC50 of 1.4 nM.

Compound `COCCC#Cc1cc(-c2cc(C(F)F)ncc2OC)c(C(=O)Nc2nnc([C@H]3C[C@@H]3C)s2)cn1` (racemic) [Compound 625] gave a concentration for half-maximal inhibition (IC50) of 0.42 nM. Against the preceding compound, the IC50 is about 3.3-fold lower.

Turning to `COc1cnc(C(F)F)cc1-c1cc(-n2ccc(C)cc2=O)ncc1C(=O)Nc1nnc(C2C[C@@H]2C2CCCO2)s1` (mixture of isomers) [Compound 633], the IC50 is 0.95 nM.

Compound `COc1cnc(C(F)F)cc1-c1cc(C#CCN2CCOCC2)ncc1C(=O)Nc1nnc([C@H]2C[C@@H]2c2cscn2)s1` (racemic) [Compound 634, 2′-(difluoromethyl)-5′-methoxy-6-(3-morpholinoprop-1-yn-1-yl)-N-(5-((1S,2S)-2-(thiazol-4-yl)cyclopropyl)-1,3,4-thiadiazol-2-yl)-[4,4′-bipyridine]-3-carboxamide] had an IC50 of 0.86 nM.

For the compound `COc1cnc(C(F)F)cc1-c1cc(-n2ccc(C)cc2=O)ncc1C(=O)Nc1nnc(C2C[C@@H]2c2cscn2)s1` (mixture of isomers) [Compound 635], the IC50 was determined as 0.25 nM.

`CC#C[C@H]1CC1c1nnc(NC(=O)c2cnc(-n3ccc(C)cc3=O)cc2-c2cc(C(F)F)ncc2OC)s1` (mixture of isomers) [Compound 637]: the IC50 is under 0.25 nM.

As for `CC#C[C@H]1CC1c1nnc(NC(=O)c2cnc(-n3cccc(F)c3=O)cc2-c2cc(C(F)F)ncc2OC)s1` (mixture of isomers) [Compound 638], the half-maximal inhibitory concentration (IC50) is under 0.25 nM.

`C#C[C@@]1(F)CC1c1nnc(NC(=O)c2cnc(-n3ccc(C)cc3=O)cc2-c2cc(C(F)F)ncc2OC)s1` (mixture of isomers) [Compound 639]: the half-inhibitory concentration (IC50) came out at 0.47 nM.

Regarding `COc1cnc(C(F)F)cc1-c1cc(C#CCN2CCOCC2)ncc1C(=O)Nc1nnc([C@H]2C[C@@H]2c2cncs2)s1` (racemic) [Compound 640], the IC50 amounted to 0.54 nM.

Turning to `COc1cnc(C(F)F)cc1-c1cc(C#CCN2CCCC2=O)ncc1C(=O)Nc1nnc([C@H]2C[C@@H]2c2cscn2)s1` (racemic) [Compound 641], the IC50 is under 0.25 nM.

Consider `COc1cnc(C(F)F)cc1-c1cc(C#CCN2CCCC2=O)ncc1C(=O)Nc1nnc([C@H]2C[C@@H]2c2cncs2)s1` (racemic) [Compound 643], for which the IC50 was determined as 0.3 nM.

Take `C#C[C@@H]1CC1c1nnc(NC(=O)c2cnc(-n3ccc(C)cc3=O)cc2-c2cc(C(F)F)ncc2OC)s1` (single isomer, unassigned) [Compound 480]: inhibition was half-maximal at 1.7 nM (IC50).

The compound `C#C[C@H]1CC1c1nnc(NC(=O)c2cnc(N3CCOC4(CC4)C3=O)cc2-c2cc(C(F)F)ncc2OC)s1` (single isomer, unassigned) [Compound 588] yielded an IC50 of 0.75 nM.

With `C#C[C@H]1CC1c1nnc(NC(=O)c2cnc(-n3ccc(C)cc3=O)cc2-c2cc(Cl)ncc2OC)s1` (single isomer, unassigned) [Compound 590], the IC50 is under 0.25 nM.

In turn, `C#C[C@H]1C[C@@H]1c1nnc(NC(=O)c2cnc(-n3ccc(OC4CCN(C)C4)cc3=O)cc2-c2cc(C(F)F)ncc2OC)s1` (single isomer, unassigned) [Compound 626] came in with a half-maximal inhibitory concentration (IC50) of 3.5 nM.

For `C#C[C@H]1CC1c1nnc(NC(=O)c2cnc(-n3ccc(OC)cc3=O)cc2-c2cc(C(F)F)ncc2OC)s1` (single isomer, unassigned) [Compound 629], the IC50 is 1 nM.

On to `C#C[C@H]1CC1c1nnc(NC(=O)c2cnc(-n3ncc(C)cc3=O)cc2-c2cc(C(F)F)ncc2OC)s1` (single isomer, unassigned) [Compound 632], for which half-maximal inhibition (IC50) was put at 0.35 nM.
